According to patent publication US12370235B2, “Synthetic, non-natural antimicrobial peptides inspired by Staphylococcus auricularis delta toxin” (University of Saskatchewan, priority 2021, dated 2025):
Read-outs that look alike come from different tables or passages of the source. Ends that are not written are not given here.

Columns and labels:
[1] = system: M. luteus ATCC 4698; experiment: MIC, broth dilution; assay type: cell-based, Micrococcus luteus
How it was run: (§1)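 Peptides (95% purity) were serially diluted 2-fold and mixed with bacteria diluted to OD 6×10^−4 in cation-adjusted Mueller Hinton broth. Standing cultures were incubated overnight at 37° C. MIC was the lowest peptide concentration with no observed growth.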

[2] = system: S. aureus ATCC 29213; experiment: MIC, broth dilution; assay type: cell-based, Staphylococcus aureus; conditions: Table 5; STIP3 variants, highest concentration 100 μg/mL
How it was run: as §1

[3] = system: S. aureus ATCC BAA-42 (MRSA SCCmec type VI); experiment: MIC, broth dilution; assay type: cell-based, Staphylococcus aureus; conditions: Table 5; STIP3 variants, highest concentration 100 μg/mL
How it was run: as §1

[4] = system: S. aureus ATCC BAA-1683 (MRSA SCCmec type IV); experiment: MIC, broth dilution; assay type: cell-based, Staphylococcus aureus; conditions: Table 5; STIP3 variants, highest concentration 100 μg/mL
How it was run: as §1

[5] = system: S. aureus ATCC BAA-41 (MRSA SCCmec type II); experiment: MIC, broth dilution; assay type: cell-based, Staphylococcus aureus; conditions: Table 5; STIP3 variants, highest concentration 100 μg/mL
How it was run: as §1

[6] = system: S. aureus ATCC 33592 (MRSA SCCmec type III); experiment: MIC, broth dilution; assay type: cell-based, Staphylococcus aureus; conditions: Table 5; STIP3 variants, highest concentration 100 μg/mL
How it was run: as §1

[7] = system: MRSA ATCC 33592; experiment: DiSC3(5) membrane polarization assay; assay type: cell-based, Staphylococcus aureus; conditions: 1.56 to 25 μg/mL
Experimental: Membrane disruption and depolarization are commonly reported mechanisms of AMP action. Two indirect assays that rely on fluorescent dyes were employed to assess the interaction of STIP3-29 and D-STIP3-29 with bacterial membranes. First, changes to SYTOX fluorescence was measured when MRSA ATCC 33592 was treated with increasing peptide concentrations ranging from one fourth to four-fold the MIC. […] Next, DiSC3(5), a cationic dye that binds to polarized membranes was used to report on possible depolarization related to AMP treatment. […] Thus, without wishing to be bound by theory, a more conservative explanation of the results is that the cationic peptides increase membrane permeability to SYTOX and that the like-charge of the AMPs to the reporter of polarization may confound the interpretation of the indirect assay. For example, the AMPs may simply displace the self-quenching DiSC3(5) molecules from the membrane surface without causing depolarization.

[8] = system: C. albicans MYA-2876; experiment: MIC, YPD broth; assay type: cell-based, Candida albicans; conditions: Table 8
How it was run: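 Yeast cells were diluted in YPD broth, and 180 μl aliquots were mixed with 20 μl of peptide from 2-fold serial dilutions in flat-bottom 96-well microtitre plates. Wells receiving 20 μl sterile water served as controls. After standing incubation overnight at 37° C, the MIC was taken as the lowest peptide concentration with no visible microbial growth.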

[9] = system: C. albicans Y537; experiment: MIC, YPD broth; assay type: cell-based, Candida albicans; conditions: Table 8
[10] = system: Streptococcus equi; experiment: MIC, broth dilution; assay type: cell-based; conditions: clinical isolate
Experimental: (§2) MIC determination. MICs were measured using peptides with 95% purity. For bacterial studies, cation-adjusted Mueller Hinton (MH) broth was used as the growth medium whereas Yeast Peptone Dextrose (YPD; 10 g/L yeast extract, 20 g/L peptone, 20 g/L dextrose) was used for Candida spp. and other yeast. Microorganisms were diluted to an optical density of […] in MH or YPD broth and a 180 μl volume was mixed with 20 μl of peptide arrayed as a 2-fold dilution series in a flat-bottom 96-well microtitre plate. A control was performed using 20 μl of sterile water. Plates were incubated as standing cultures overnight at 37° C.
(§3) Determination of minimum inhibitory concentrations. The MICs were measured for bioactive peptides identified from the initial screen. For bacterial studies, cation-adjusted Mueller Hinton (MH) broth was used as the growth medium whereas YPD was used for C. albicans. Bacterial cultures were diluted to a OD value of 6×10^−4 in MH broth and a 180 μl volume was mixed with 20 μl of peptide arrayed as 2-fold dilution series in a 96-well plate. For the positive control, 20 μl of sterile water was used. Plates were incubated as standing cultures overnight at 37° C. The lowest peptide concentration that resulted no observed microbial growth after an overnight treatment was defined as the MIC.

[11] = system: Streptococcus agalactiae; experiment: MIC, broth dilution; assay type: cell-based; conditions: clinical isolate
Experimental: as §2, §3

[12] = system: Streptococcus zooepidermicus; experiment: MIC, broth dilution; assay type: cell-based; conditions: clinical isolate
Experimental: as §2, §3

[13] = system: Pseudomonas aeruginosa ATCC 27853; experiment: MIC, broth dilution; assay type: cell-based
Experimental: as §2, §3

[14] = system: S. equorum; experiment: MIC, broth dilution; assay type: cell-based; conditions: isolate from a healthy dairy cow
Experimental: as §2, §3

[15] = system: S. epidermidis; experiment: MIC, broth dilution; assay type: cell-based; conditions: isolate from a healthy dairy cow
Experimental: as §2, §3

[16] = system: Streptococcus dysagalactiae; experiment: MIC, broth dilution; assay type: cell-based; conditions: clinical isolate
Experimental: as §2, §3

[17] = system: Klebsiella pneumoniae; experiment: MIC, broth dilution; assay type: cell-based
Experimental: as §2, §3

[18] = system: Streptococcus canis; experiment: MIC, broth dilution; assay type: cell-based; conditions: clinical isolate
Experimental: as §2, §3

[19] = system: Enterococcus faecalis ATCC 2912; experiment: MIC, broth dilution; assay type: cell-based
Experimental: as §2, §3

[20] = system: Pasteurella multocida; experiment: MIC, broth dilution; assay type: cell-based
Experimental: as §2, §3

[21] = system: S. auricularis; experiment: MIC, broth dilution; assay type: cell-based; conditions: isolate from a healthy dairy cow
Experimental: as §2, §3

[22] = system: S. scuri; experiment: MIC, broth dilution; assay type: cell-based; conditions: isolate from a healthy dairy cow
Experimental: as §2, §3

[23] = system: Mycoplasma bovis; experiment: MIC, broth dilution; assay type: cell-based
Experimental: as §2, §3

[24] = system: Mannheimia haemolytica (clinical, disease-causing isolate); experiment: MIC, broth dilution; assay type: cell-based; conditions: Table 7
Experimental: as §2, §3

[25] = system: Klebsiella pneumoniae; experiment: SYTOX Green membrane integrity assay; assay type: cell-based; conditions: 25 μg/mL; resistant strain
[26] = system: panel of 7 MRSA strains; assay type: cell-based, Staphylococcus aureus
Experimental: The antibiotic effect of STIP3-29 was bactericidal (FIG. 3). […] Some proportion of bacterial cells escaped treatment, remaining dormant. Indeed, strain-dependent persister cells, capable of escaping a variety of therapeutic agents, have been described for S. aureus^47.
Measurement of bactericidal activity. […] For S. aureus, an overnight culture was diluted to an OD of 5×10^−7 in 2 ml of MH broth supplemented with the appropriate concentration of peptide. Sterile water was added to control cultures. Standing cultures were incubated at 37° C. and 100 μl volume aliquots were removed at 60 min time intervals for 8 h. These aliquots were plated on agar plates to measure the colony forming units (CFUs) that remained viable upon treatment. Control aliquots from the same time intervals were diluted before plating to accurately enumerate increasing CFU counts. Counts were performed from plates that were incubated at 37° C. overnight. A plot of CFU/ml against time was used to illustrate and evaluate the time dependent killing. The same procedure was followed for C. albicans except that YPD broth and a cultivation temperature of 30° C. was employed.

Which results are given for “TVGGLVKWILKTVKKFA-NH2 [STIP3-29, TVGGLVKWILKTVKKFA-NH2]”?
MIC M. luteus [1]: 1.56 µg/mL; MIC M. luteus ([1]; molar): 0.85 µM; fold improvement of activity (MIC) ([1]; relative to STIP3-1, M. luteus): 8 fold; MIC S. aureus ATCC 29213 [2]: 12.5 µg/mL; MIC S. aureus ATCC BAA 42 (VI) [3]: 6.25 µg/mL; MIC S. aureus ATCC BAA 1683 (IV) [4]: 6.25 µg/mL; MIC S. aureus ATCC BAA 41 (II) [5]: 6.25 µg/mL; MIC S. aureus ATCC 33592 (III) [6]: 6.25 µg/mL; DiSC3(5) fluorescence change [7]: dose-dependent increase in fluorescence; MIC C. albicans MYA-2876 [8]: 12.5 µg/mL; MIC C. albicans Y537 [9]: 25 µg/mL; MIC [10]: 3.13 µg/mL; MIC [11]: 3.13 µg/mL; MIC [12]: 3.13 µg/mL; MIC (μg/ml) [13]: > (> indicates no inhibition up to 50 μg/ml); MIC [14]: 3.13 µg/mL; MIC [15]: 3.13 µg/mL; MIC [16]: 3.13 µg/mL; MIC (μg/ml) [17]: > (> indicates no inhibition up to 50 μg/ml); MIC [18]: 6.25 µg/mL; MIC [19]: 12.5 µg/mL; MIC (μg/ml) [20]: > (> indicates no inhibition up to 50 μg/ml); MIC [21]: 1.56 µg/mL; MIC [22]: 3.13 µg/mL; MIC (μg/ml) [23]: > (> indicates no inhibition up to 50 μg/ml); MIC [24]: 6.25 µg/mL; SYTOX entry [25]: SYTOX was slow to enter; treated bacteria killed ([26]; 12.5 μg/mL (2-fold MIC), within the first 4 hours, panel of 7 MRSA strains): ~99%; antibiotic effect ([26]; in words): bactericidal
